Values of other authors as cited in patent US20110070305A1, “SUSTAINED RELEASE PHARMACEUTICAL COMPOSITION CONTAINING MEBICAR” (ALPHARX INC., priority 2009, published 2011).

Columns and labels:
[1] = orally administered

CN1C(=O)N(C)C2C1N(C)C(=O)N2C (stereo not drawn) [Mebicar]
half-life [1]: approximately 3 hours | solubility in alcohol and most polar organic solvents (alcohol and most polar organic solvents): soluble | solubility in water (water, ambient temperature): about 50%
